In US20210077439A1 (priority 2016, published 2021):

Experiments:
joints (arthritis) = details: dog, in vivo
quadriceps muscle = test system: quadriceps muscle; set-up: species or system New Zealand White rabbits; details: rabbit, in vivo
[1] = test system: quadriceps (knee extensor musculature); set-up: species or system New Zealand White rabbits; details: rabbit, in vivo
[2] = in vivo; cited from earlier work
[3] = in vivo; cited from earlier work; remark: listed apart in the source
skeletal muscle = details: in vivo; cited from earlier work

## [Br-].[K+] [potassium bromide, reference compound]
Joints (arthritis)
  adverse effect of the seizure treatment: severe ataxia

## NCC1(CC(=O)O)CCCCC1 [gabapentin, reference compound]
Joints (arthritis)
  adverse effect of the seizure treatment: severe ataxia

## CCC1(c2ccccc2)C(=O)NC(=O)NC1=O [phenobarbital, reference compound]
Joints (arthritis)
  adverse effect of the seizure treatment: severe ataxia

## CC(C)(O)CC(=O)O [HMB, β-hydroxy-β-methylbutyric acid]
Quadriceps muscle
  contralateral muscle weights as a percentage of body weight versus botox (p<0.10) and control (p<0.03) groups: larger contralateral musculature
  muscle hypertrophy in the contralateral leg: greatly increased
[1]
  botox-induced loss of strength in the contralateral musculature: prevented much of the botox-induced loss of strength
Joints (arthritis)
  ataxia, owner-observed, after resuming the HMB regimen: significant improvement
  joint stability and movement, owner-observed outcome: increased joint stability, decreased joint instability, improved balanced movement and stability of skeletal joints
  mobility after resuming the HMB regimen during anti-seizure medication: began standing up without assistance, and was able to climb stairs without significant assistance
[2]
  loss of HMB to urine: 20-50%
[3]
  side effects: no side effects

## CC(C)(O)CC(=O)O [HMB-FA]
Skeletal muscle
  decrease in protein breakdown: −56%
  increase in skeletal muscle protein synthesis: +70%
[2]
  plasma levels of HMB compared with calcium HMB: approximately double
  time to plasma level compared with calcium HMB: about one-quarter the time
